Here are results for 29 molecules from US20250387359A1, “COMPOUNDS AND METHODS FOR THE TREATMENT OF PARASITIC INFECTIONS” (THE BOARD OF TRUSTEES OF THE UNIVERSITY OF ILLINOIS, priority 2019, published 2025).

Like-named read-outs stand apart in the source and are kept apart here.

Data set [1] concerns the target T1, recombinant CpLDH protein (Cryptosporidium parvum, UniProt Q9GT92, F198L/K295E/R251K). Description: CpLDH enzyme kinetics on substrates and co-factors. In kind it is biochemical. The note with it: for Km: pyruvate/NADH: reduction of pyruvate to lactate, lactate/NAD+: oxidation of lactate to pyruvate, 25° C. The procedure: (§1) Biochemical assays. The coding sequence of CpLDH was cloned from cDNA prepared from the AUCP-1 isolate of C. parvum, and the His-tagged CpLDH recombinant protein expressed in Escherichia coli, and purified in native form essentially as previously described (Int. J. Parasitol. 2017; 47(13), 867-874). Briefly, cDNA was prepared from total RNA extracted from the AUCP-1 isolate of C. parvum, and the coding sequencing of CpLDH (Genebank accession number AF274310.1) was PCR-amplified from the cDNA using a primer pair with a XhoI restriction site and a BamHI site. The PCR amplicon was cloned at the XhoI/BamHI site of the pET15b expression vector in-frame with the hexahistidine (His-tag) at the N-terminal and sequenced to confirm identity. The recombinant expression vector was transformed into protein expression E. coli BL21-CodonPlus-DE3-RIL (Stratagene). Transformed E. coli was cultured at 37° C. in Luria broth medium (supplemented with 100 μg/ml ampicillin and 34 μg/ml chloramphenicol) to an A600 of 0.8 followed by addition of 1 mM isopropyl-β-d-thiogalactopyranoside to induce protein expression. The expression E. coli was harvested and lysed under native conditions by sonicating in lysis buffer (50 mM NaH2PO4, 300 mM NaCl, 10 mM Imidazole, pH 8.0) containing a 1× EDTA-free protease inhibitor cocktail, 600 units benzonase and 30 kU lysozyme (EMD Millipore). The lysate was clarified by centrifugation and the His-tagged recombinant protein purified under native conditions by nickel-affinity chromatography according to the manufacturer's instructions (Novagen). The wash buffer used contained 50 mM NaH2PO4, 300 mM NaCl and 20 mM Imidazole, pH 8.0, while the elution buffer was composed of 50 mM NaH2PO4, 300 mM NaCl, 250 mM Imidazole, pH 8.0. The eluate was dialyzed using a buffer containing 5 mM Hepes-KOH (pH 7.8) and 0.5 mM DTT. The purity of the recombinant protein was determined by SDS/PAGE, and the concentration measured using a Qubit 3.0 fluorometer (Life technologies). […] On the other hand, the catalytic activity of CpLDH recombinant protein for the oxidation of lactate to pyruvate was determined by measuring the change in optical density of a 100 μl reaction mixture containing 100 mM lactate, 1 mM NAD^+, 100 mM Tris, pH 9.2, with varying concentrations of CpLDH recombinant protein at 25° C. […] In all assays, reaction mixtures without recombinant CpLDH protein were included as negative controls. All assays were performed in triplicate and repeated at least thrice. The change in optical density was measured every 15 seconds for a total of 2 minutes using a Spectra Max 384 Plus plate reader (Molecular Devices) at a wavelength of 340 nm.

In data set [2] the target is T1, recombinant CpLDH protein. The note with it: reported by Zhang et al., PLoS Pathog. 2015; cited from earlier work.
Data set [3] has as its target T1, recombinant CpLDH protein. Description: biochemical. The format is biochemical. The note with it: 20 μM compound; 10 mM pyruvate, 1 mM NADH. As for the experimental part:
as §1
Screening compounds for inhibitory activity against CpLDH. The chemical compounds were obtained from the National Cancer Institute/Developmental Therapeutics Program Open Chemical Repository. They consisted of a diverse set of compounds (n=27) reported previously (Int J Parasitol Drugs Drug Resist. 2016; 6(1), 44-53), and a Mechanistic Set IV compounds (n=800). The compounds were reconstituted in dimethyl sulfoxide (DMSO) as stock solutions. Just before use, aliquots of the stock solutions were diluted in sterile distilled water to generate working solutions, such that the final amount of DMSO added to the reaction mixtures was less than 1% (V/V). The compounds were tested for their inhibitory effect against the enzymatic activity of recombinant His-tagged CpLDH for catalyzing the reduction of pyruvate to lactate. […] Control reactions without recombinant CpLDH protein were included. Reactions were performed in triplicate and repeated at least thrice. The change in optical density was measured every 15 seconds for a total of 2 minutes using a Spectra Max 384 Plus plate reader (Molecular Devices) at a wavelength of 340 nm.

A further data set concerns HCT-8 cells. Description: Compound cytotoxicity assay (WST-1) in HCT-8 cells. In kind it is cell-based, human. The procedure: Compound cytotoxicity assay. […] A colorimetric assay using the cell proliferation reagent WST-1 (Roche, USA) for the quantification of cell viability was performed. […] When the cells were confluent, the old medium was replaced with fresh medium with or without varying concentrations of chemical compound. After 24 h of culture, 10 μl of the cell proliferation reagent WST-1, (for quantification of cell viability) was added to each well, mixed and the plates incubated for 1 h at 37 C with 5% CO2 in the dark. […] Molecular Devices, USA).
For orientation: Tetrazolium assays rely on reduction of a dye to a coloured formazan, in cell work by metabolically active cells.

Setting [4] is: pyruvate/NADH: reduction, lactate/NAD+: oxidation.
Setting [5] is: HCT-8 cells, 24 h, WST-1, read-out: CYTOTOXICITY IC50.

T1 sequence (Q9GT92 whole entry F198L/K295E/R251K): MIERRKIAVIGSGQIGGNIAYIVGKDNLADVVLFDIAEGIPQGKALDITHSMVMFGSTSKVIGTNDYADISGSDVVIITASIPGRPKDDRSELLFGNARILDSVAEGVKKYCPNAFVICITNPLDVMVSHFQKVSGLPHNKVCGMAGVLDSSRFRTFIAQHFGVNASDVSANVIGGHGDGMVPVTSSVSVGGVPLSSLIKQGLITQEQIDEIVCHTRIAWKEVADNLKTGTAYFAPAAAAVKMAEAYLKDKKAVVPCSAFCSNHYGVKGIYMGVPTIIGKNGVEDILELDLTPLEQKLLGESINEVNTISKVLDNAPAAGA

Regarding `CC(O)C(=O)O` (centres unmarked) [Lactate, lactate], in data set [1] (read-out: Km), the Km (usually the concentration of substrate that gives half-maximal velocity) came out at 39600 µM. In data set [1] (setting [4]), the Kcat was 0.07 s⁻¹ and the Vmax amounted to 0.04 nmol⁻¹ µg⁻¹ min⁻¹. In addition, in data set [2], the Kcat result was “(0.66)* s^−1”, the Km was 10800 µM and the Vmax entry is listed as “(0.53)* nmol^−1 · μg^−1 · min^−1”.

As to `NC(=O)C1=CN([C@@H]2O[C@H](COP(=O)(O)OP(=O)(O)OC[C@H]3O[C@@H](n4cnc5c(N)ncnc54)[C@H](O)[C@@H]3O)[C@@H](O)[C@H]2O)C=CC1` [NADH], the Michaelis-Menten constant (Km) in data set [1] (read-out: Km) is 734 µM; in data set [2] it was 92 µM. Also, the Vmax was 6.29 nmol⁻¹ µg⁻¹ min⁻¹ in data set [1] (setting [4]) and “(9.33)* nmol^−1 · μg^−1 · min^−1” in data set [2]. The Kcat entry in data set [2] was “(11.70)* s^−1”.

With `CN(C)C(=S)SSC(=S)N(C)C` [NSC1771], the “effect on catalytic activity of recombinant CpLDH” value (from here on “effect on catalytic activity”) in data set [3] is listed as “significant (P<0.05) inhibitory effect”. The IC50 (as a rule, the point on the concentration scale where inhibition reaches its midpoint) in the data set with HCT-8 cells (setting [5]) was found to be 110 µM.

Regarding `CC1=C(CCC(=O)O)c2cc3nc(cc4[nH]c(cc4C)cc4[nH]c(cc1n2)cc4C)C(C)=C3CCC(=O)O` [NSC18298], the “effect on catalytic activity” value in data set [3] is given as “significant (P<0.05) inhibitory effect”. Also, the IC50 with HCT-8 cells was found to be 81.9 µM.

Regarding `O=C(O)[C@@H]1[C@H](C(=O)O)[C@]2(Cl)C(Cl)=C(Cl)[C@@]1(Cl)C2(Cl)Cl` [NSC22225], in data set [3], the “effect on catalytic activity” value is given as “significantly (P<0.05) inhibited”. This molecule displayed an IC50 with HCT-8 cells of 96.8 µM.

On to `O=c1oc2cc(O)ccc2c2oc3cc(O)ccc3c12` [NSC22842], for which the “effect on catalytic activity” value in data set [3] is given as “significant (P<0.05) inhibitory effect”. The molecule further registered an IC50 with HCT-8 cells of 83.5 µM.

Regarding `CC(=O)Nc1ccc(-c2nc3ccccc3s2)cc1` [NSC33006], the “effect on catalytic activity” value in data set [3] is reported as “significant (P<0.05) inhibitory effect”. Further, the IC50 in the data set with HCT-8 cells stood at 87.3 µM.

With `O=S(=O)([O-])c1cc(N=Nc2cc(S(=O)(=O)[O-])c3ccccc3c2O)ccc1/C=C/c1ccc(N=Nc2cc(S(=O)(=O)[O-])c3ccccc3c2O)cc1S(=O)(=O)[O-].[Na+].[Na+].[Na+].[Na+]` [NSC34931], the “effect on catalytic activity” value in data set [3] is reported as “significant (P<0.05) inhibitory effect”. Also, the IC50 in the data set on HCT-8 cells was found to be 71.1 µM.

On to `O=S(=O)(O)c1cc(N=[N+]([O-])c2cc(S(=O)(=O)O)c3ccccc3c2)cc2ccccc12` [NSC37031], for which the “effect on catalytic activity” value in data set [3] was “significantly (P<0.05) inhibited”. Besides, in the data set with HCT-8 cells, the midpoint of inhibition, the IC50, lay at 333 µM.

Regarding `[Cl][Cd][Cl]` [NSC51148], the “effect on catalytic activity” value in data set [3] was “significant (P<0.05) inhibitory effect”. Moreover, the IC50 in the data set on HCT-8 cells turned out to be 39.6 µM.

With `Cc1cc2c(C(C)C)c(O)c(O)c(C=O)c2c(O)c1-c1c(C)cc2c(C(C)C)c(O)c(O)c(C=O)c2c1O` [NSC56817], the “effect on catalytic activity” value in data set [3] is on record as “significant (P<0.05) inhibitory effect”. Further, the IC50 with HCT-8 cells (setting [5]) came to 64.2 µM.

Consider `N#CCCN(CCC#N)Cc1cc(O)c(CN(CCC#N)CCC#N)cc1O` [NSC70925], for which, in data set [3], the “effect on catalytic activity” value is “significant (P<0.05) inhibitory effect”. In the data set on HCT-8 cells, this molecule returned an IC50 of 142 µM.

`Cc1cc2c(c3oc(C4(C)OC4C4OC4C)cc(=O)c13)C(=O)c1c(O)c(C3CC(C)(N(C)C)C(O)C(C)O3)cc(C3CC(N(C)C)C(O)C(C)O3)c1C2=O` (centres unmarked) [NSC70929]: in data set [3], the “effect on catalytic activity” value is on record as “significant (P<0.05) inhibitory effect”. In the data set with HCT-8 cells, the IC50 came out at 181 µM.

Regarding `Cc1ccc2c(sc(-c3ccc4c(c3)sc(-c3ccc(N(C)C)cc3)[n+]4C)[n+]2C)c1S(=O)(=O)[O-].[Cl-]` [NSC71948], in data set [3], the “effect on catalytic activity” value is “significant (P<0.05) inhibitory effect”. In the data set on HCT-8 cells, this molecule came in with an IC50 of 106 µM.

In the case of `O=[N+]([O-])c1ccc2c(N=Nc3c(O)ccc4ccccc34)c(O)cc(S(=O)(=O)[O-])c2c1.[Na+]` [NSC73413], the “effect on catalytic activity” value in data set [3] is on record as “significant (P<0.05) inhibitory effect”. This molecule displayed an IC50 with HCT-8 cells of 220 µM.

`Cc1cc(N(CCCl)CCCl)ccc1/C=N/NC(=O)Cc1cc(=O)oc2cc(O)ccc12` [NSC79688]: in data set [3], the “effect on catalytic activity” value is recorded as “significant (P<0.05) inhibitory effect”. In the data set with HCT-8 cells (setting [5]), the IC50 came to 145 µM.

As for `O=C(CC(=O)C(F)(F)F)c1csc2ccccc12` [NSC80396], 91.9 µM corresponded to half-maximal inhibition with HCT-8 cells (IC50).

As to `CCOC(C)C(C=NNC(N)=S)=NNC(N)=S` (centres unmarked) [NSC82116], in data set [3], the “effect on catalytic activity” value is “significant (P<0.05) inhibitory effect”. In addition, in the data set with HCT-8 cells, the IC50 came to 118 µM.

Consider `O=[N+]([O-])c1cccc2c(N=Nc3ccc4ccccc4c3O)c(O)cc(S(=O)(=O)O)c12.[Na+]` [NSC85561], for which, in data set [3], the “effect on catalytic activity” value is reported as “significant (P<0.05) inhibitory effect”. For the same molecule, in the data set on HCT-8 cells, the IC50 worked out at 103 µM.

Molecule `CCOC(=O)Cc1c(C)c2cc(C(=O)c3ccccc3)c(O)cc2oc1=O` [NSC115538] displayed an IC50 with HCT-8 cells of 158 µM.

In turn, `COc1ccc(/C=C/C(=O)Oc2cc(O)cc(O)c2)cc1` [NSC175296] yielded an IC50 with HCT-8 cells of 156 µM.

For `O=C([CH-]C(=O)C(F)(F)F)c1ccccc1.O=C([CH-]C(=O)C(F)(F)F)c1ccccc1.O=C([CH-]C(=O)C(F)(F)F)c1ccccc1.O=C([CH-]C(=O)C(F)(F)F)c1ccccc1.[Eu+3].c1ccncc1` [NSC253995], the “effect on catalytic activity” value in data set [3] is listed as “significant (P<0.05) inhibitory effect”. In the data set with HCT-8 cells, half-maximal inhibition (IC50) was put at 83 µM.

Regarding `CC(O)CCC(=O)c1ccoc1` (centres unmarked) [NSC349438], in data set [3], the “effect on catalytic activity” value is reported as “significant (P<0.05) inhibitory effect”. For the same molecule, in the data set with HCT-8 cells, the IC50 stood at 93.9 µM.

In the case of `O=Cc1cc([N+](=O)[O-])no1` [NSC626433], in data set [3], the “effect on catalytic activity” value is given as “significant (P<0.05) inhibitory effect”. Besides, half-maximal inhibition in the data set on HCT-8 cells (IC50) was put at 265 µM.

Take `O=S(=O)(O)c1cc(N=Nc2cc(S(=O)(=O)O)c3cccnc3c2O)ccc1/C=C/c1ccc(N=Nc2cc(S(=O)(=O)O)c3cccnc3c2O)cc1S(=O)(=O)O` [NSC638352]: in data set [3], the “effect on catalytic activity” value is “significant (P<0.05) inhibitory effect”. Half-maximal inhibition in the data set on HCT-8 cells (IC50) was put at 116 µM.

On to `O=C1/C(=C/c2ccccc2)CN(C(=O)/C=C/c2ccccc2)C/C1=C\c1ccccc1` [NSC638634], for which the IC50 in the data set with HCT-8 cells came out at 157 µM.

For the molecule `COc1ccc(CCN(C)CCCC(C#N)(c2ccc(OC)c(OC)c2)C(C)C)cc1OC.Cl` (centres unmarked) [NSC657799], the “effect on catalytic activity” value in data set [3] is “significant (P<0.05) inhibitory effect”.

Regarding `COC(=O)C1=C(C(=O)OC)SC2(S1)C(C(=O)OC)=C(C(=O)OC)Sc1c2ssc1=O` [NSC686349], in data set [3], the “effect on catalytic activity” value was “significant (P<0.05) inhibitory effect”. The IC50 in the data set on HCT-8 cells is 283 µM.

On to `CC(=O)C(=O)O` [Pyruvate, pyruvate], for which the Km in data set [1] was determined as 731 µM.
